The results in this text go back to patent US20040171090A1, “Anti-tumor antigen against HTLV-I tumor or antigen epitope thereof” (priority 2001, published 2004).

Peptide text beside a SMILES is read from it.

The test system of data set [1] is HTLV-I-specific CTL cell lines. Conditions: for cytotoxic activity of HTLV-I-specific CTL cell lines against target cells sensitized with peptide (FIG. 6): 15-24 mer peptides 10 μM, 37° C. 1 hour, release assay 6 hours; for cytotoxic activity of HTLV-I-specific CTL cell lines against target cells sensitized with peptide (FIG. 6) / cytotoxicity of long-term-cultured CTL cell lines against target cells sensitized with peptide (FIG. 7) / peptide concentration necessary to induce cytotoxic activity of the same extent as Tax 180-188: E/T 10; for cytotoxicity of long-term-cultured CTL cell lines against target cells sensitized with peptide (FIG. 7): peptides 10 μM; for peptide concentration necessary to induce cytotoxic activity of the same extent as Tax 180-188: G14 cells treated 1 hour with serially diluted peptide.

The test system of data set [2] is HTLV-I-infected tumor cells, FPM1-V1AX. Nature of the data set: Vaccine effect: splenic T cells of immunized nu/+ rats transferred to nu/nu rats given FPM1-V1AX, tumor volume. The conditions noted are these: nu/+ rats immunized subcutaneously twice, two-week interval, 100 μg peptide and/or ISS-ODN. Format: in vivo, rat.

In the case of “Tax 97-120: partially overlapping synthetic peptide (15-24 mers), partial peptide in the Tax protein (TTPNIPPSFLQAMRKYSPFRNGYM)”, the “cytotoxic activity of HTLV-I-specific CTL cell lines against target cells sensitized with peptide (FIG. 6)” value (shortened to “cytotoxic activity … (FIG. 6)”) in data set [1] (G14 cells) was “low cytotoxic activity”.
As for `CC[C@H](C)[C@H](NC(=O)[C@H](CCCNC(=N)N)NC(=O)[C@H](CCCCN)NC(=O)[C@H](Cc1ccc(O)cc1)NC(=O)[C@@H]1CCCN1C(=O)[C@@H](NC(=O)[C@H](CC(N)=O)NC(=O)[C@@H](NC(=O)[C@H](CC(C)C)NC(=O)[C@H](Cc1ccccc1)NC(=O)[C@H](C)N)[C@@H](C)O)C(C)C)C(=O)N[C@@H](CCC(=O)O)C(=O)N[C@@H](CCC(=O)O)C(=O)N[C@@H](CC(C)C)C(=O)N[C@@H](CC(C)C)C(=O)O` [Tax 181-195], in data set [1] (G14 cells), the “cytotoxic activity … (FIG. 6)” value was “effectively dissolve” and the “cytotoxicity of long-term-cultured CTL cell lines against target cells sensitized with peptide (FIG. 7)” value is given as “notably dissolved”.
As for LGAFLTNVP [Tax 179-187], the “CTL sensitivity of target cells sensitized with 9 amino acid synthetic peptides (FIG. 8)” value in data set [1] (G14 cells, 9 mer peptides, same method as for the 15-24 mers) is on record as “exhibited CTL sensitivity”.
Take `CC(C)C[C@H](NC(=O)[C@H](Cc1ccccc1)NC(=O)[C@H](C)N)C(=O)N[C@H](C(=O)N[C@@H](CC(N)=O)C(=O)N[C@H](C(=O)N1CCC[C@H]1C(=O)N[C@@H](Cc1ccc(O)cc1)C(=O)N[C@@H](CCCCN)C(=O)O)C(C)C)[C@@H](C)O` [Tax 181-189] (H-AFLTNVPYK-OH; N-terminus and C-terminus assumed): the “peptide concentration necessary to induce cytotoxic activity of the same extent as Tax 180-188” value in data set [1] amounted to 1 µM.
On to “Tax 81-104: partially overlapping synthetic peptide (15-24 mers), partial peptide in the Tax protein (QRTSKTLKVLTPPITHTTPNIPPS)”, for which, in data set [1] (G14 cells), the “cytotoxic activity … (FIG. 6)” value was “low cytotoxic activity”.
On to 5′-TGACTGTGAACGTTCGAGATGA-3′ [ISS-ODN], for which the “suppression effect on tumor proliferation by splenic T cells from immunized rats (tumor volume, FIG. 12)” value in data set [2] was “not recognized”.
As for `CC[C@H](C)[C@H](NC(=O)[C@H](CCCCN)NC(=O)[C@H](Cc1ccc(O)cc1)NC(=O)[C@H](CC(C)C)NC(=O)[C@H](CC(C)C)NC(=O)[C@H](CCC(=O)O)NC(=O)[C@H](CCC(=O)O)NC(=O)[C@@H](NC(=O)[C@H](CCCNC(=N)N)NC(=O)[C@H](CCCCN)NC(=O)[C@H](Cc1ccc(O)cc1)NC(=O)[C@@H]1CCCN1C(=O)[C@@H](NC(=O)[C@H](CC(N)=O)NC(=O)[C@@H](NC(=O)[C@H](CC(C)C)NC(=O)[C@H](Cc1ccccc1)NC(=O)[C@H](C)NC(=O)CNC(=O)[C@H](CC(C)C)NC(=O)[C@H](CCC(N)=O)NC(=O)CN)[C@@H](C)O)C(C)C)[C@@H](C)CC)C(=O)N[C@@H](CO)C(=O)N[C@@H](CC(C)C)C(=O)O` [Tax 177-200], in data set [1] (G14 cells), the “cytotoxic activity … (FIG. 6)” value is on record as “effectively dissolve” and the “cytotoxicity of long-term-cultured CTL cell lines against target cells sensitized with peptide (FIG. 7)” value was “notably dissolved”.
For the molecule `CC(C)C[C@H](NC(=O)[C@@H](N)Cc1ccccc1)C(=O)N[C@H](C(=O)N[C@@H](CC(N)=O)C(=O)N[C@H](C(=O)N1CCC[C@H]1C(=O)N[C@@H](Cc1ccc(O)cc1)C(=O)N[C@@H](CCCCN)C(=O)N[C@@H](CCCNC(=N)N)C(=O)O)C(C)C)[C@@H](C)O` [Tax 182-190] (H-FLTNVPYKR-OH; N-terminus and C-terminus assumed), in data set [1], the “peptide concentration necessary to induce cytotoxic activity of the same extent as Tax 180-188” value came to 10 µM.
With “Tax 17-40: partially overlapping synthetic peptide (15-24 mers), partial peptide in the Tax protein (VYVFGDCVQGDWCPISGGLCSARL)”, the “cytotoxic activity … (FIG. 6)” value in data set [1] (G14 cells) is “low cytotoxic activity”.
The same measure, in the same setting: the entry for “Tax 33-56: partially overlapping synthetic peptide (15-24 mers), partial peptide in the Tax protein (GGLCSARLHRHALLATCPEHQITW)” is “low cytotoxic activity”.
